Tests used:
[1] = system: Danio rerio embryo
Experimental: (§1)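 Zebrafish embryos (UFZ-OBI strain) were exposed from 2 hpf for 48 h (2 dpf) or 96 h (4 dpf) at 28 °C; spontaneous tail coiling was scored at 25 hpf. Morphological features from automated image analysis (FishInspector), heart rate and locomotor response were fitted with drc models. Quantal endpoints were dichotomised at 2.5 SD from controls and fitted with a log-logistic model; heart rate, pigmentation and STC were normalised to the replicate control mean. Betamethasone was tested as betamethasone dipropionate, diflorasone as diflorasone diacetate.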

[2] = system: Danio rerio embryo; conditions: exposure time: 4 dpf
Experimental: as §1

[3] = system: Danio rerio embryo; test: EC50 Curvature_Increase
Experimental: as §1

[4] = system: Danio rerio embryo; test: EC50 Body length_Decrease
Experimental: as §1

[5] = system: Danio rerio embryo; test: EC50 Bladder size_Decrease; conditions: exposure time: 4 dpf
Experimental: as §1

[6] = system: Danio rerio embryo; test: EC50 Pericard size_Increase
Experimental: as §1

[7] = system: Danio rerio embryo; test: EC50 Yolk sac size_Increase; conditions: exposure time: 4 dpf
Experimental: as §1

[8] = system: Danio rerio embryo; test: EC50 Eye-jaw distance_Decrease; conditions: exposure time: 4 dpf
Experimental: as §1

[9] = system: Danio rerio embryo; test: EC50 Otolith-eye distance_Decrease; conditions: exposure time: 4 dpf
Experimental: as §1

[10] = system: Danio rerio embryo; test: EC10 LMR dark; higher = less potent; conditions: exposure time: 4 dpf
Experimental: as §1

[11] = system: Danio rerio embryo; test: EC20 LMR dark; higher = less potent; conditions: exposure time: 4 dpf
Experimental: as §1

[12] = system: Danio rerio embryo; test: EC20 Any effect; higher = less potent
Experimental: as §1

[13] = system: Danio rerio embryo; test: EC10 Any effect; higher = less potent
Experimental: as §1

[14] = system: Danio rerio embryo; test: EC20 Eye size_Decrease; higher = less potent
Experimental: as §1

[15] = system: Danio rerio embryo; test: EC10 Curvature_Increase; higher = less potent
Experimental: as §1

[16] = system: Danio rerio embryo; test: EC20 Curvature_Increase; higher = less potent
Experimental: as §1

[17] = system: Danio rerio embryo; test: EC10 Head size_Decrease; higher = less potent
Experimental: as §1

[18] = system: Danio rerio embryo; test: EC20 Body length_Decrease; higher = less potent
Experimental: as §1

[19] = system: Danio rerio embryo; test: EC10 Body length_Decrease; higher = less potent
Experimental: as §1

[20] = system: Danio rerio embryo; test: EC10 Bladder size_Decrease; higher = less potent; conditions: exposure time: 4 dpf
Experimental: as §1

[21] = system: Danio rerio embryo; test: EC20 Bladder size_Decrease; higher = less potent; conditions: exposure time: 4 dpf
Experimental: as §1

[22] = system: Danio rerio embryo; test: EC20 Yolk sac size_Increase; higher = less potent; conditions: exposure time: 4 dpf
Experimental: as §1

[23] = system: Danio rerio embryo; test: EC20 Pericard size_Increase; higher = less potent
Experimental: as §1

[24] = system: Danio rerio embryo; test: EC10 Yolk sac size_Increase; higher = less potent; conditions: exposure time: 4 dpf
Experimental: as §1

[25] = system: Danio rerio embryo; test: EC10 Pericard size_Increase; higher = less potent
Experimental: as §1

[26] = system: Danio rerio embryo; test: EC20 Eye-jaw distance_Decrease; higher = less potent; conditions: exposure time: 4 dpf
Experimental: as §1

[27] = system: Danio rerio embryo; test: EC10 Eye-jaw distance_Decrease; higher = less potent; conditions: exposure time: 4 dpf
Experimental: as §1

[28] = system: Danio rerio embryo; test: EC20 Otolith-eye distance_Decrease; higher = less potent; conditions: exposure time: 4 dpf
Experimental: as §1

[29] = system: Danio rerio embryo; test: EC10 Otolith-eye distance_Decrease; higher = less potent; conditions: exposure time: 4 dpf
Experimental: as §1

[30] = system: Danio rerio embryo; test: spontaneous tail coiling frequency (coils/min/embryo); higher = more spontaneous movement; conditions: 25 hpf
Experimental: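 Spontaneous tail coilings of zebrafish embryos exposed from 2 hpf were recorded at 24-25 hpf in 1-min videos and detected by a KNIME workflow from grey-value variance. Betamethasone was tested as the dipropionate, diflorasone as the diacetate.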

O=C(O)CCc1nc(-c2ccccc2)c(-c2ccccc2)o1 [Oxaprozin]
Conditions | EC10 Any effect [µM] | EC10 Body length Decrease [µM] | EC10 Curvature Increase [µM] | EC10 Head size Decrease [µM] | EC10 Pericard size Increase [µM] | EC20 Any effect [µM] | EC20 Body length Decrease [µM] | EC20 Curvature Increase [µM] | EC20 Eye size Decrease [µM] | EC20 Pericard size Increase [µM] | EC50 Any effect [µM] | EC50 Body length Decrease [µM] | EC50 Curvature Increase [µM] | EC50 Pericard size Increase [µM] | EC50 Pigmentation increase [µM] | spontaneous tail coiling frequency
[1], exposure time: 2 dpf | – | – | – | – | – | – | – | – | – | – | 30.2 | – | – | – | – | –
[1], exposure time: 4 dpf | – | – | – | – | – | – | – | – | – | – | 20.2 | – | – | – | 35.6 | –
[3], exposure time: 2 dpf | – | – | – | – | – | – | – | – | – | – | – | – | 61.4 | – | – | –
[3], exposure time: 4 dpf | – | – | – | – | – | – | – | – | – | – | – | – | 30.8 | – | – | –
[4], exposure time: 2 dpf | – | – | – | – | – | – | – | – | – | – | – | 38 | – | – | – | –
[4], exposure time: 4 dpf | – | – | – | – | – | – | – | – | – | – | – | 27.1 | – | – | – | –
[6], exposure time: 2 dpf | – | – | – | – | – | – | – | – | – | – | – | – | – | 55.9 | – | –
[6], exposure time: 4 dpf | – | – | – | – | – | – | – | – | – | – | – | – | – | 19.1 | – | –
[12], exposure time: 2 dpf | – | – | – | – | – | 19.3 | – | – | – | – | – | – | – | – | – | –
[12], exposure time: 4 dpf | – | – | – | – | – | 15.3 | – | – | – | – | – | – | – | – | – | –
[13], exposure time: 2 dpf | 14.9 | – | – | – | – | – | – | – | – | – | – | – | – | – | – | –
[13], exposure time: 4 dpf | 13 | – | – | – | – | – | – | – | – | – | – | – | – | – | – | –
[14], exposure time: 2 dpf | – | – | – | – | – | – | – | – | 61.2 | – | – | – | – | – | – | –
[14], exposure time: 4 dpf | – | – | – | – | – | – | – | – | 22.7 | – | – | – | – | – | – | –
[15], exposure time: 2 dpf | – | – | 28.7 | – | – | – | – | – | – | – | – | – | – | – | – | –
[15], exposure time: 4 dpf | – | – | 21.8 | – | – | – | – | – | – | – | – | – | – | – | – | –
[16], exposure time: 2 dpf | – | – | – | – | – | – | – | 38 | – | – | – | – | – | – | – | –
[16], exposure time: 4 dpf | – | – | – | – | – | – | – | 24.8 | – | – | – | – | – | – | – | –
[17], exposure time: 2 dpf | – | – | – | 10.8 | – | – | – | – | – | – | – | – | – | – | – | –
[17], exposure time: 4 dpf | – | – | – | 12.4 | – | – | – | – | – | – | – | – | – | – | – | –
[18], exposure time: 2 dpf | – | – | – | – | – | – | 29.3 | – | – | – | – | – | – | – | – | –
[18], exposure time: 4 dpf | – | – | – | – | – | – | 21.8 | – | – | – | – | – | – | – | – | –
[19], exposure time: 2 dpf | – | 25.1 | – | – | – | – | – | – | – | – | – | – | – | – | – | –
[19], exposure time: 4 dpf | – | 19.3 | – | – | – | – | – | – | – | – | – | – | – | – | – | –
[23], exposure time: 2 dpf | – | – | – | – | – | – | – | – | – | 38.6 | – | – | – | – | – | –
[23], exposure time: 4 dpf | – | – | – | – | – | – | – | – | – | 14.1 | – | – | – | – | – | –
[25], exposure time: 2 dpf | – | – | – | – | 31.1 | – | – | – | – | – | – | – | – | – | – | –
[25], exposure time: 4 dpf | – | – | – | – | 11.8 | – | – | – | – | – | – | – | – | – | – | –
[30], 15.2 µM | – | – | – | – | – | – | – | – | – | – | – | – | – | – | – | 4.43
[30], 17 µM | – | – | – | – | – | – | – | – | – | – | – | – | – | – | – | 3.98
[30], 22.7 µM | – | – | – | – | – | – | – | – | – | – | – | – | – | – | – | 4.29
[30], 34.1 µM | – | – | – | – | – | – | – | – | – | – | – | – | – | – | – | 4.85
[30], 51.1 µM | – | – | – | – | – | – | – | – | – | – | – | – | – | – | – | 5.84
[30], 68.2 µM | – | – | – | – | – | – | – | – | – | – | – | – | – | – | – | 4.34
[30], 85.2 µM | – | – | – | – | – | – | – | – | – | – | – | – | – | – | – | 8.82
[30], 102.3 µM | – | – | – | – | – | – | – | – | – | – | – | – | – | – | – | 6.78

Conditions | EC10 Bladder size Decrease [µM] | EC10 Eye-jaw distance Decrease [µM] | EC10 LMR dark [µM] | EC10 Otolith-eye distance Decrease [µM] | EC10 Yolk sac size Increase [µM] | EC20 Bladder size Decrease [µM] | EC20 Eye-jaw distance Decrease [µM] | EC20 LMR dark [µM] | EC20 Otolith-eye distance Decrease [µM] | EC20 Yolk sac size Increase [µM] | EC50 Bladder size Decrease [µM] | EC50 Eye-jaw distance Decrease [µM] | EC50 LMR dark [µM] | EC50 Otolith-eye distance Decrease [µM] | EC50 Yolk sac size Increase [µM]
[2] | – | – | – | – | – | – | – | – | – | – | – | – | 16.2 | – | –
[5] | – | – | – | – | – | – | – | – | – | – | 12.2 | – | – | – | –
[7] | – | – | – | – | – | – | – | – | – | – | – | – | – | – | 22.6
[8] | – | – | – | – | – | – | – | – | – | – | – | 21.5 | – | – | –
[9] | – | – | – | – | – | – | – | – | – | – | – | – | – | 24.8 | –
[10] | – | – | 11.8 | – | – | – | – | – | – | – | – | – | – | – | –
[11] | – | – | – | – | – | – | – | 13.3 | – | – | – | – | – | – | –
[20] | 11.5 | – | – | – | – | – | – | – | – | – | – | – | – | – | –
[21] | – | – | – | – | – | 11.8 | – | – | – | – | – | – | – | – | –
[22] | – | – | – | – | – | – | – | – | – | 16.3 | – | – | – | – | –
[24] | – | – | – | – | 13.4 | – | – | – | – | – | – | – | – | – | –
[26] | – | – | – | – | – | – | 15.4 | – | – | – | – | – | – | – | –
[27] | – | 12.7 | – | – | – | – | – | – | – | – | – | – | – | – | –
[28] | – | – | – | – | – | – | – | – | 19.2 | – | – | – | – | – | –
[29] | – | – | – | 16.5 | – | – | – | – | – | – | – | – | – | – | –

Reference: the supplement of paper PMC9013687
